Data from the supplement of paper PMC6045584.
± gives the standard deviation of the averaged measurements.

Columns and labels:
[1] = compound: C[C@@H](Oc1cc(-c2cnn(C3CCNCC3)c2)cnc1N)c1c(Cl)ccc(F)c1Cl [CRIZOTINIB]; test: area under dose-response curve of surviving fraction (unscaled, Aref=0) (surviving fraction x log10(nM)); higher = more resistant; settings: exposure time: 5 days; dose range 0.5-1000 nM
In short: (§1)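 Surviving fractions were fitted by 3-parameter logistic regression in the drc R package to give dose-response survival curves. They came from tumour cell lines treated for five days with eight inhibitor concentrations from 0.5 to 1000 nM and read by CellTiter-Glo luminescence against DMSO-only wells. The area under the curve is the unscaled activity area. It was calculated over log10 dose with Aref = 0.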

[2] = compound: T1, Oc1nc(-c2ccc(C(F)(F)F)cc2)nc2c1CSCC2 [XAV-939]; test: as above; settings: exposure time: 5 days; dose range 0.5-1000 nM
In short: as §1

[3] = compound: O=C(c1cc(Cc2n[nH]c(=O)c3ccccc23)ccc1F)N1CCN(C(=O)C2CC2)CC1 [OLAPARIB]; test: as above; settings: exposure time: 5 days; dose range 0.5-1000 nM
In short: as §1

[4] = compound: CNCc1ccc(-c2[nH]c3cc(F)cc4c3c2CCNC4=O)cc1; test: as above; settings: exposure time: 5 days; dose range 0.5-1000 nM
In short: as §1

[5] = compound: T1, XAV-939; test: surviving fraction relative to DMSO-only wells; higher = less growth inhibition; settings: exposure time: 5 days
In short: (§2)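 After seeding at 250–500 cells per well in 384-well plates and a 24-hour wait, log-phase tumour cell lines were exposed without interruption for five days to inhibitors at 0.5, 1, 5, 10, 50, 100, 500 and 1000 nM. CellTiter-Glo luminescence was recorded after 10 minutes at room temperature. Viability is reported as surviving fraction, the luminescence normalised to the median of DMSO-only wells.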

[6] = compound: CNCc1ccc(-c2[nH]c3cc(F)cc4c3c2CCNC4=O)cc1; test: as above; settings: exposure time: 5 days
In short: as §2

SCC90 HEADNECK
area under dose-response curve [1]: 3.27 | area under dose-response curve [2]: 3.4 | area under dose-response curve [3]: 3.24 | area under dose-response curve [4]: 3.19 | surviving fraction ([5]; 0.5 nM): 1.01 ± 0.1 | surviving fraction ([5]; 1 nM): 1.11 ± 0.18 | surviving fraction ([5]; 5 nM): 1.08 ± 0.077 | surviving fraction ([5]; 10 nM): 1.13 ± 0.071 | surviving fraction ([5]; 50 nM): 1.05 ± 0.03 | surviving fraction ([5]; 100 nM): 1.05 ± 0.084 | surviving fraction ([5]; 500 nM): 0.894 ± 0.032 | surviving fraction ([5]; 1000 nM): 0.918 ± 0.07 | surviving fraction ([6]; 0.5 nM): 0.96 ± 0.039 | surviving fraction ([6]; 1 nM): 1 ± 0.071 | surviving fraction ([6]; 5 nM): 0.998 ± 0.058 | surviving fraction ([6]; 10 nM): 1.06 ± 0.1 | surviving fraction ([6]; 50 nM): 0.934 ± 0.13 | surviving fraction ([6]; 100 nM): 0.916 ± 0.062 | surviving fraction ([6]; 500 nM): 0.9207 ± 0.0047 | surviving fraction ([6]; 1000 nM): 0.948 ± 0.11

SG43 HEADNECK
area under dose-response curve [1]: 2.8 | area under dose-response curve [2]: 2.88 | area under dose-response curve [3]: 3.28 | area under dose-response curve [4]: 3.46 | surviving fraction ([5]; 0.5 nM): 1.07 ± 0.11 | surviving fraction ([5]; 1 nM): 1.03 ± 0.07 | surviving fraction ([5]; 5 nM): 0.909 ± 0.17 | surviving fraction ([5]; 10 nM): 0.806 ± 0.26 | surviving fraction ([5]; 50 nM): 0.744 ± 0.04 | surviving fraction ([5]; 100 nM): 0.878 ± 0.17 | surviving fraction ([5]; 500 nM): 0.9 ± 0.068 | surviving fraction ([5]; 1000 nM): 0.761 ± 0.081 | surviving fraction ([6]; 0.5 nM): 1.13 ± 0.22 | surviving fraction ([6]; 1 nM): 1.05 ± 0.17 | surviving fraction ([6]; 5 nM): 0.927 ± 0.14 | surviving fraction ([6]; 10 nM): 0.82 ± 0.18 | surviving fraction ([6]; 50 nM): 1.06 ± 0.26 | surviving fraction ([6]; 100 nM): 1.13 ± 0.24 | surviving fraction ([6]; 500 nM): 1.15 ± 0.14 | surviving fraction ([6]; 1000 nM): 1.46 ± 0.17

SNU475 LIVER
area under dose-response curve [1]: 3.26 | area under dose-response curve [2]: 3.07 | area under dose-response curve [3]: 3.11 | area under dose-response curve [4]: 3.13 | surviving fraction ([5]; 0.5 nM): 0.936 ± 0.035 | surviving fraction ([5]; 1 nM): 0.976 ± 0.033 | surviving fraction ([5]; 5 nM): 0.891 ± 0.18 | surviving fraction ([5]; 10 nM): 1.02 ± 0.018 | surviving fraction ([5]; 50 nM): 0.952 ± 0.011 | surviving fraction ([5]; 100 nM): 0.965 ± 0.033 | surviving fraction ([5]; 500 nM): 0.713 ± 0.068 | surviving fraction ([5]; 1000 nM): 0.59 ± 0.027 | surviving fraction ([6]; 0.5 nM): 0.999 ± 0.052 | surviving fraction ([6]; 1 nM): 0.982 ± 0.039 | surviving fraction ([6]; 5 nM): 0.992 ± 0.065 | surviving fraction ([6]; 10 nM): 0.99 ± 0.026 | surviving fraction ([6]; 50 nM): 0.919 ± 0.027 | surviving fraction ([6]; 100 nM): 0.916 ± 0.028 | surviving fraction ([6]; 500 nM): 0.863 ± 0.053 | surviving fraction ([6]; 1000 nM): 0.892 ± 0.043

SUM149 BREAST
area under dose-response curve [1]: 3.15 | area under dose-response curve [2]: 2.66 | area under dose-response curve [3]: 2.46 | area under dose-response curve [4]: 2.39 | surviving fraction ([5]; 0.5 nM): 1.02 ± 0.094 | surviving fraction ([5]; 1 nM): 0.987 ± 0.05 | surviving fraction ([5]; 5 nM): 0.971 ± 0.067 | surviving fraction ([5]; 10 nM): 0.942 ± 0.034 | surviving fraction ([5]; 50 nM): 0.854 ± 0.095 | surviving fraction ([5]; 100 nM): 0.691 ± 0.037 | surviving fraction ([5]; 500 nM): 0.432 ± 0.0091 | surviving fraction ([5]; 1000 nM): 0.328 ± 0.022 | surviving fraction ([6]; 0.5 nM): 0.887 ± 0.032 | surviving fraction ([6]; 1 nM): 0.997 ± 0.037 | surviving fraction ([6]; 5 nM): 0.778 ± 0.039 | surviving fraction ([6]; 10 nM): 0.779 ± 0.1 | surviving fraction ([6]; 50 nM): 0.673 ± 0.067 | surviving fraction ([6]; 100 nM): 0.665 ± 0.088 | surviving fraction ([6]; 500 nM): 0.497 ± 0.033 | surviving fraction ([6]; 1000 nM): 0.494 ± 0.014

SYO1 SYNOVIAL
area under dose-response curve [1]: 2.71 | area under dose-response curve [2]: 3.01 | area under dose-response curve [3]: 2.48 | area under dose-response curve [4]: 2.25 | surviving fraction ([5]; 0.5 nM): 0.954 ± 0.039 | surviving fraction ([5]; 1 nM): 0.998 ± 0.062 | surviving fraction ([5]; 5 nM): 0.984 ± 0.028 | surviving fraction ([5]; 10 nM): 0.997 ± 0.047 | surviving fraction ([5]; 50 nM): 0.973 ± 0.059 | surviving fraction ([5]; 100 nM): 0.879 ± 0.024 | surviving fraction ([5]; 500 nM): 0.708 ± 0.044 | surviving fraction ([5]; 1000 nM): 0.568 ± 0.0066 | surviving fraction ([6]; 0.5 nM): 0.954 ± 0.081 | surviving fraction ([6]; 1 nM): 0.921 ± 0.022 | surviving fraction ([6]; 5 nM): 0.842 ± 0.014 | surviving fraction ([6]; 10 nM): 0.8 ± 0.019 | surviving fraction ([6]; 50 nM): 0.655 ± 0.029 | surviving fraction ([6]; 100 nM): 0.587 ± 0.032 | surviving fraction ([6]; 500 nM): 0.455 ± 0.037 | surviving fraction ([6]; 1000 nM): 0.351 ± 0.04

T47D BREAST
area under dose-response curve [1]: 3.51 | area under dose-response curve [2]: 3.54 | area under dose-response curve [3]: 3.11 | area under dose-response curve [4]: 3.24 | surviving fraction ([5]; 0.5 nM): 1.04 ± 0.074 | surviving fraction ([5]; 1 nM): 1.08 ± 0.045 | surviving fraction ([5]; 5 nM): 1.07 ± 0.02 | surviving fraction ([5]; 10 nM): 1.09 ± 0.014 | surviving fraction ([5]; 50 nM): 1.09 ± 0.044 | surviving fraction ([5]; 100 nM): 1.13 ± 0.053 | surviving fraction ([5]; 500 nM): 1.04 ± 0.052 | surviving fraction ([5]; 1000 nM): 1.05 ± 0.042 | surviving fraction ([6]; 0.5 nM): 0.999 ± 0.015 | surviving fraction ([6]; 1 nM): 1.04 ± 0.019 | surviving fraction ([6]; 5 nM): 1.04 ± 0.021 | surviving fraction ([6]; 10 nM): 0.999 ± 0.019 | surviving fraction ([6]; 50 nM): 0.969 ± 0.033 | surviving fraction ([6]; 100 nM): 0.954 ± 0.046 | surviving fraction ([6]; 500 nM): 0.911 ± 0.0085 | surviving fraction ([6]; 1000 nM): 0.943 ± 0.023

U2OS BONE
area under dose-response curve [1]: 3.06 | area under dose-response curve [2]: 3.25 | area under dose-response curve [3]: 3.26 | area under dose-response curve [4]: 3.17 | surviving fraction ([5]; 0.5 nM): 1.02 ± 0.028 | surviving fraction ([5]; 1 nM): 1.04 ± 0.012 | surviving fraction ([5]; 5 nM): 1.07 ± 0.032 | surviving fraction ([5]; 10 nM): 1.06 ± 0.038 | surviving fraction ([5]; 50 nM): 1.06 ± 0.014 | surviving fraction ([5]; 100 nM): 1.04 ± 0.018 | surviving fraction ([5]; 500 nM): 0.921 ± 0.02 | surviving fraction ([5]; 1000 nM): 0.8627 ± 0.0081 | surviving fraction ([6]; 0.5 nM): 1 ± 0.016 | surviving fraction ([6]; 1 nM): 1.01 ± 0.051 | surviving fraction ([6]; 5 nM): 1.03 ± 0.036 | surviving fraction ([6]; 10 nM): 1.06 ± 0.031 | surviving fraction ([6]; 50 nM): 0.961 ± 0.011 | surviving fraction ([6]; 100 nM): 0.926 ± 0.037 | surviving fraction ([6]; 500 nM): 0.883 ± 0.013 | surviving fraction ([6]; 1000 nM): 0.774 ± 0.052

VCAP PROSTATE
area under dose-response curve [1]: 3.04 | area under dose-response curve [2]: 3.13 | area under dose-response curve [3]: 3.59 | area under dose-response curve [4]: 3.23 | surviving fraction ([5]; 0.5 nM): 0.963 ± 0.12 | surviving fraction ([5]; 1 nM): 0.958 ± 0.077 | surviving fraction ([5]; 5 nM): 1.08 ± 0.092 | surviving fraction ([5]; 10 nM): 0.973 ± 0.089 | surviving fraction ([5]; 50 nM): 0.957 ± 0.083 | surviving fraction ([5]; 100 nM): 0.903 ± 0.088 | surviving fraction ([5]; 500 nM): 0.848 ± 0.13 | surviving fraction ([5]; 1000 nM): 0.84 ± 0.024 | surviving fraction ([6]; 0.5 nM): 1.01 ± 0.11 | surviving fraction ([6]; 1 nM): 1.04 ± 0.14 | surviving fraction ([6]; 5 nM): 1.06 ± 0.21 | surviving fraction ([6]; 10 nM): 1.04 ± 0.052 | surviving fraction ([6]; 50 nM): 0.921 ± 0.12 | surviving fraction ([6]; 100 nM): 1.02 ± 0.07 | surviving fraction ([6]; 500 nM): 0.881 ± 0.15 | surviving fraction ([6]; 1000 nM): 0.908 ± 0.092
